Assay results taken from US9497967B2, “Synergistic pesticidal compositions and related methods” (Dow AgroSciences LLC, priority 2013, dated 2016).

What was measured:
Type in all cases: in vivo
Conditions in all cases: alone
[1] = test system: diamondback moth, Plutella xylostella; test: Cabbage plant track-sprayer bioassay against second instar diamondback moth
Excerpt: (§1) The method described in Colby S. R., “Calculating Synergistic and Antagonistic Responses of Herbicide Combinations,” Weeds, 1967, 15, 20-22 was used to determine an existence of synergic effect between the chloride channel activator compound and the pesticide (I), (II), or any agriculturally acceptable salt thereof in the formulated pesticidal composition. In this method, the percent insect control of the formulated pesticidal composition as observed in the study was compared to the “expected” percent control (E) as calculated by equation (1) (hereinafter “Colby's equation”) below: […]
Bioassays were performed for different active compounds. Cabbage plants with about two to three new-growth-true leaf stage were treated with different active compounds using a track sprayer application at 400 L/Ha spray volume. Three second instar diamondback moth, Plutella xylostella, were infested onto each leaf disc. The percent control of the pesticidal composition against diamondback moth, Plutella xylostella, was determined as the “Observed” action, and compared to those obtained by using about 0.0025 weight % of compound II, and using about 0.000078 weight % of emamectin benzoate alone. The “Colby's Expected Action” was calculated using Colby's equation as discussed previously.
Bioassays were performed wherein different active compounds were tested against diamondback moth, Plutella xylostella, using the procedure described in example 5A.

[2] = test system: South American brown stink bug, Euschistus heros; test: Treated bean piece bioassay against third-instar nymphs of South American brown stink bug
Excerpt: as §1
The active compounds were formulated in a 10% acetone solution with 0.025% non-ionic surfactant, TWEEN® 20. Bioassays were performed for each different active solution. Bean pieces (about one inch-long) were used for the tests. Four bean pieces were placed in each tested active solution and left there for 10 minutes. […]
The percent control of the pesticidal composition against South American brown stink bug, Euschistus heros, was determined as the “Observed” action, and compared to those obtained by using about 0.04 weight % of compound I, and using about 0.000156 weight % of emamectin benzoate alone. The “Colby's Expected Action” was calculated using Colby's equation as discussed previously.

[3] = test system: Western plant bug, Lygus hesperus; test: Treated bean piece bioassay against third-instar nymphs of Western plant bug
Excerpt: as §1
The active compounds were formulated in a 10% acetone solution with 0.025% non-ionic surfactant, TWEEN® 20. Bioassays were performed for each different active solution. Bean pieces (about one inch-long) were used for the tests. Four bean pieces were placed in each tested active solution and left there for 10 minutes. Bean pieces were taken out of the active solution, and each piece was placed in a well in a 32-well tray and allowed to air dry. Three third-instar nymphs of Western plant bug, Lygus hesperus, were infested into each well. The percent control of the pesticidal composition against Lygus hesperus bug was determined as the “Observed” action, and compared to those obtained by using about 0.04 weight % of compound I, and using about 0.20 weight % of emamectin benzoate alone. The “Colby's Expected Action” was calculated using Colby's equation as discussed previously.

Compound: CCN(C(=O)CCSCCC(F)(F)F)c1cn(-c2cccnc2)nc1Cl [Compound I, N-(3-chloro-1-(pyridin-3-yl)-1H-pyrazol-4-yl)-N-ethyl-3-((3,3,3-trifluoropropyl)thio)propanamide]
- % Control Three Days After Treatment ([1]; dose rate 0.000625 weight %): no control
- % Control Four Days After Treatment ([2]; dose rate 0.04 weight %): 8%
- % Control Three Days After Treatment ([3]; dose rate 0.04 weight %): 0%
- % Control Three Days After Treatment ([3]; dose rate 0.04 weight %, listed as compound I): no control

Compound: emamectin benzoate
- % Control Three Days After Treatment ([1]; dose rate 0.000039 weight %): 73.91%
- % Control Three Days After Treatment ([1]; dose rate 0.000078 weight %): 91.3%
- % Control Four Days After Treatment ([2]; dose rate 0.000156 weight %): 25%
- % Control Three Days After Treatment ([3]; dose rate 0.20 weight %): 0%
- % Control Three Days After Treatment ([3]; dose rate 0.20 weight %, listed as emamectin benzoate): no control
